Experimental data reported in PMC12778052 (Science Advances, 2026).

Legend:
in vivo = assay: in vivo; parameters: species or system NSG mice; conditions: mouse; for tissue uptake at 2 min / tissue uptake at 0.25 h / tissue uptake at 1 h / tissue uptake at 2 h / tissue uptake at 3 h / tissue to tissue ratio at 2 min / tissue to tissue ratio at 0.25 h / tissue to tissue ratio at 1 h / tissue to tissue ratio at 2 h / tissue to tissue ratio at 3 h: NSG, iv, 1.85 MBq, total radioactivity
Experimental: Mice were injected with cancer cells subcutaneously in 100 μl of PBS (top right flank) for all tumor models. The following cell numbers were used: HT1376 (4 million), UC9 (3 million), UC14 (3 million), RT112 (1.5 million), T24(3 million), and SCaBER (4 million). Mice with tumor volumes of 100 to 200 mm^3 were used for all experiments. A minimum of four mice were used for all biodistribution studies. A minimum of seven mice were used in PD experiment to account for greater variability. To validate imaging studies, ex vivo biodistribution studies were conducted in mice with tumors of 100 to 200 mm^3 in size. […] In all other studies, a 60-min time point was chosen. Selected tissues (blood, skin, muscle, bone, salivary glands, tumor, lungs, heart, liver, pancreas, spleen, kidneys, bladder, and testicles) were collected, weighed, and counted, and their %IA/g values were calculated as described previously ([33]). For EV PD studies, fewer organs were harvested to accommodate a higher number of mice.

SCaBER tumors = assay: Pilot in vivo EV effect on tumor uptake of [^68Ga]AJ647, SCaBER tumors; parameters: species or system NSG mice; conditions: EV 20 mg/kg i.v. single dose, 24 hours before tracer, ex vivo 60 min, n = 5
Experimental: Male NSG mice were implanted subcutaneously with HT1376 and SCaBER cells (4 million each) on the right and left rostral ends, respectively. On day 25 after cell inoculation (average tumor volume, 200 ± 35 mm^3), mice were randomized and treated with a single dose of either saline or EV ADC (20 mg/kg) injected intravenously (volume not exceeding 300 μl) or with 200 μl of saline (n = 7 per group). Twenty-four hours following the EV dose, [^68Ga]AJ647 PET scans (n = 2 per group) were acquired, and ex vivo biodistribution (n = 5 per group) was performed using the protocols mentioned above.

CSCC[C@@H]1NC(=O)[C@@H]2CSCCC(=O)N3CN(CN(C3)C(=O)CCSC[C@H](NC(=O)CCOCCOCCOCCOCCOCCOCCOCCOCCOCCOCCOCCOCCNC(=O)CN3CCN(CC(=O)O)CCN(CC(=O)O)CC3)C(=O)N3CCC[C@H]3C(=O)N[C@@H](Cc3cccc4ccccc34)C(=O)N[C@@H](CC(=O)O)C(=O)N2)C(=O)CCSC[C@@H](C(N)=O)NC(=O)[C@H](Cc2c[nH]c3ccccc23)NC(=O)[C@@H]2C[C@@H](O)CN2C(=O)[C@@H]2CCCN2C(=O)[C@H]([C@@H](C)O)NC(=O)[C@H](CO)NC(=O)[C@H](Cc2c[nH]c3ccccc23)NC(=O)[C@@H](CC(=O)O)NC(=O)[C@H](CCCCNC(=N)N)NC1=O [[^68Ga]AJ647, metal not drawn]
tissue uptake at 2 min (in vivo; Blood): 35.8 ± 3.64 %ID/g
tissue uptake at 0.25 h (in vivo; Blood): 2.94 ± 0.68 %ID/g
tissue uptake at 1 h (in vivo; Blood): 0.84 ± 0.22 %ID/g
tissue uptake at 2 h (in vivo; Blood): 0.28 ± 0.06 %ID/g
tissue uptake at 3 h (in vivo; Blood): 0.32 ± 0.09 %ID/g
tissue uptake at 2 min (in vivo; Femur): 1.88 ± 0.29 %ID/g
tissue uptake at 0.25 h (in vivo; Femur): 1.3 ± 0.05 %ID/g
tissue uptake at 1 h (in vivo; Femur): 0.57 ± 0.18 %ID/g
tissue uptake at 2 h (in vivo; Femur): 0.27 ± 0.09 %ID/g
tissue uptake at 3 h (in vivo; Femur): 0.34 ± 0.09 %ID/g
tissue uptake at 2 min (in vivo; Heart): 11.3 ± 0.51 %ID/g
tissue uptake at 0.25 h (in vivo; Heart): 1.15 ± 0.34 %ID/g
tissue uptake at 1 h (in vivo; Heart): 0.43 ± 0.07 %ID/g
tissue uptake at 2 h (in vivo; Heart): 0.19 ± 0.01 %ID/g
tissue uptake at 3 h (in vivo; Heart): 0.22 ± 0.01 %ID/g
tissue uptake at 2 min (in vivo; Liver): 6.45 ± 1.39 %ID/g
tissue uptake at 0.25 h (in vivo; Liver): 1.19 ± 0.3 %ID/g
tissue uptake at 1 h (in vivo; Liver): 0.45 ± 0.09 %ID/g
tissue uptake at 2 h (in vivo; Liver): 0.21 ± 0.07 %ID/g
tissue uptake at 3 h (in vivo; Liver): 0.23 ± 0.02 %ID/g
tissue uptake at 2 min (in vivo; Lung): 24.2 ± 7.05 %ID/g
tissue uptake at 0.25 h (in vivo; Lung): 3.66 ± 0.5 %ID/g
tissue uptake at 1 h (in vivo; Lung): 1.66 ± 0.25 %ID/g
tissue uptake at 2 h (in vivo; Lung): 0.81 ± 0.28 %ID/g
tissue uptake at 3 h (in vivo; Lung): 0.47 ± 0.2 %ID/g
tissue uptake at 2 min (in vivo; Muscle): 0.96 ± 0.19 %ID/g
tissue uptake at 0.25 h (in vivo; Muscle): 0.93 ± 0.36 %ID/g
tissue uptake at 1 h (in vivo; Muscle): 0.38 ± 0.06 %ID/g
tissue uptake at 2 h (in vivo; Muscle): 0.2 ± 0.11 %ID/g
tissue uptake at 3 h (in vivo; Muscle): 0.18 ± 0.05 %ID/g
tissue uptake at 2 min (in vivo; Salivary glands): 6.3 ± 1.24 %ID/g
tissue uptake at 0.25 h (in vivo; Salivary glands): 4.74 ± 0.94 %ID/g
tissue uptake at 1 h (in vivo; Salivary glands): 1.48 ± 0.18 %ID/g
tissue uptake at 2 h (in vivo; Salivary glands): 0.67 ± 0.09 %ID/g
tissue uptake at 3 h (in vivo; Salivary glands): 0.69 ± 0.07 %ID/g
tissue uptake at 2 min (in vivo; Skin): 1.13 ± 0.16 %ID/g
tissue uptake at 0.25 h (in vivo; Skin): 2.74 ± 0.5 %ID/g
tissue uptake at 1 h (in vivo; Skin): 1.45 ± 0.33 %ID/g
tissue uptake at 2 h (in vivo; Skin): 0.82 ± 0.22 %ID/g
tissue uptake at 3 h (in vivo; Skin): 0.66 ± 0.12 %ID/g
tissue uptake at 2 min (in vivo; Small intestine): 0.85 ± 0.23 %ID/g
tissue uptake at 0.25 h (in vivo; Small intestine): 0.68 ± 0.23 %ID/g
tissue uptake at 1 h (in vivo; Small intestine): 0.52 ± 0.17 %ID/g
tissue uptake at 2 h (in vivo; Small intestine): 0.16 ± 0.02 %ID/g
tissue uptake at 2 min (in vivo; Stomach): 0.34 ± 0.11 %ID/g
tissue uptake at 0.25 h (in vivo; Stomach): 0.49 ± 0.36 %ID/g
tissue uptake at 2 h (in vivo; Stomach): 0.13 ± 0.04 %ID/g
tissue uptake at 2 min (in vivo; Thymus): 15.7 ± 5.42 %ID/g
tissue uptake at 0.25 h (in vivo; Thymus): 2.38 ± 0.7 %ID/g
tissue uptake at 1 h (in vivo; Thymus): 0.71 ± 0.3 %ID/g
tissue uptake at 2 h (in vivo; Thymus): 0.67 ± 0.21 %ID/g
tissue uptake at 3 h (in vivo; Thymus): 0.52 ± 0.23 %ID/g
tissue uptake at 2 min (in vivo; Tumor): 0.72 ± 0.31 %ID/g
tissue uptake at 0.25 h (in vivo; Tumor): 3.75 ± 0.86 %ID/g
tissue uptake at 1 h (in vivo; Tumor): 3.72 ± 0.36 %ID/g
tissue uptake at 2 h (in vivo; Tumor): 2.06 ± 0.49 %ID/g
tissue uptake at 3 h (in vivo; Tumor): 1.39 ± 0.32 %ID/g
tissue to tissue ratio at 2 min (in vivo; Tumor/blood ratio): 0.02 ± 0.01
tissue to tissue ratio at 0.25 h (in vivo; Tumor/blood ratio): 1.41 ± 0.4
tissue to tissue ratio at 1 h (in vivo; Tumor/blood ratio): 4.6 ± 0.47
tissue to tissue ratio at 2 h (in vivo; Tumor/blood ratio): 7.27 ± 0.76
tissue to tissue ratio at 3 h (in vivo; Tumor/blood ratio): 4.58 ± 1.33
tissue to tissue ratio at 2 min (in vivo; Tumor/muscle ratio): 0.79 ± 0.45
tissue to tissue ratio at 0.25 h (in vivo; Tumor/muscle ratio): 4.23 ± 0.94
tissue to tissue ratio at 1 h (in vivo; Tumor/muscle ratio): 10.1 ± 2.19
tissue to tissue ratio at 2 h (in vivo; Tumor/muscle ratio): 11.3 ± 3.03
tissue to tissue ratio at 3 h (in vivo; Tumor/muscle ratio): 8.2 ± 4.02
tissue uptake at 2 min (in vivo; male, Adrenals): 4.81 ± 2.58 %ID/g
tissue uptake at 0.25 h (in vivo; male, Adrenals): 2.6 ± 1.1 %ID/g
tissue uptake at 1 h (in vivo; male, Adrenals): 4.45 ± 2.03 %ID/g
tissue uptake at 3 h (in vivo; male, Adrenals): 3.8 ± 0.47 %ID/g
tissue uptake at 2 min (in vivo; male, Bladder): 1.72 ± 0.24 %ID/g
tissue uptake at 0.25 h (in vivo; male, Bladder): 24.1 ± 15.3 %ID/g
tissue uptake at 1 h (in vivo; male, Bladder): 39.5 ± 21.3 %ID/g
tissue uptake at 2 h (in vivo; male, Bladder): 22.6 ± 6.46 %ID/g
tissue uptake at 3 h (in vivo; male, Bladder): 58 ± 24.8 %ID/g
tissue uptake at 2 min (in vivo; male, Brain): 0.54 ± 0.15 %ID/g
tissue uptake at 0.25 h (in vivo; male, Brain): 0.1 ± 0.02 %ID/g
tissue uptake at 1 h (in vivo; male, Brain): 0.06 ± 0.01 %ID/g
tissue uptake at 2 h (in vivo; male, Brain): 0.06 ± 0.02 %ID/g
tissue uptake at 3 h (in vivo; male, Brain): 0.06 ± 0.02 %ID/g
tissue uptake at 0.25 h (in vivo; male, Kidney): 20.4 ± 3.7 %ID/g
tissue uptake at 1 h (in vivo; male, Kidney): 30.8 ± 4.37 %ID/g
tissue uptake at 2 h (in vivo; male, Kidney): 17.3 ± 12.9 %ID/g
tissue uptake at 2 min (in vivo; male, Large intestine): 0.25 ± 0.16 %ID/g
tissue uptake at 0.25 h (in vivo; male, Large intestine): 0.41 ± 0.11 %ID/g
tissue uptake at 3 h (in vivo; male, Large intestine): 0.18 ± 0.05 %ID/g
tissue uptake at 2 min (in vivo; male, Pancreas): 2.39 ± 0.72 %ID/g
tissue uptake at 0.25 h (in vivo; male, Pancreas): 2.5 ± 0.38 %ID/g
tissue uptake at 1 h (in vivo; male, Pancreas): 0.93 ± 0.03 %ID/g
tissue uptake at 2 h (in vivo; male, Pancreas): 0.3 ± 0.06 %ID/g
tissue uptake at 3 h (in vivo; male, Pancreas): 0.42 ± 0.02 %ID/g
tissue uptake at 2 min (in vivo; male, Spleen): 1.04 ± 0.23 %ID/g
tissue uptake at 0.25 h (in vivo; male, Spleen): 4.32 ± 1.31 %ID/g
tissue uptake at 1 h (in vivo; male, Spleen): 1.75 ± 0.21 %ID/g
tissue uptake at 2 h (in vivo; male, Spleen): 0.84 ± 0.17 %ID/g
tissue uptake at 3 h (in vivo; male, Spleen): 0.83 ± 0.07 %ID/g
tissue uptake at 2 min (in vivo; male, Testicles): 0.79 ± 0.07 %ID/g
tissue uptake at 0.25 h (in vivo; male, Testicles): 0.86 ± 0.12 %ID/g
tissue uptake at 1 h (in vivo; male, Testicles): 0.74 ± 0.2 %ID/g
tissue uptake at 2 h (in vivo; male, Testicles): 0.52 ± 0.17 %ID/g
tissue uptake at 3 h (in vivo; male, Testicles): 0.93 ± 0.5 %ID/g
blood pool activity cleared (in vivo): more than 90%

enfortumab vedotin [EV]
reduction in [^68Ga]AJ647 tumor uptake vs saline controls (SCaBER tumors): 72%
